Values quoted from earlier work as cited in PubChem BioAssay AID1259409 (Chemical Carcinogenesis Research Information System (CCRIS), 2018).

Tested on: rodent chemically induced tumor inhibition, incidence and multiplicity
Test: CCRIS tumor inhibitor studies

C=C(CC[C@@H](C(=O)O)[C@H]1[C@H](O)C[C@@]2(C)C3=C(CC[C@]12C)[C@@]1(C)CC[C@H](OC(C)=O)C(C)(C)[C@@H]1CC3)C(C)C
tumour outcome (control, treated, inhibition, significance) (Carcinogen: 7,12-DIMETHYLBENZ[A]ANTHRACENE, 57-97-6, Dose [Inhibitor]: 0, 0.2 UMOL 2/WK FOR 19 WK BEGINNING 1 WK POST CARCINOGEN DOSE (STUDY DURATION: 20 WK), Route [Inhibitor]: DERMAL, Species: MOUSE, Strain/Sex: ICR, Target Tissue: Type of Lesion: SKIN: PAPILLOMA, Dose [Carcinogen]: 50 UG ONCE, Promoter: 12-O-TETRADECANOYLPHORBOL-13-ACETATE, 16561-29-8): 73%, 25%, 66%, not calculated | tumour outcome (control, treated, inhibition, significance) (Carcinogen: 7,12-DIMETHYLBENZ[A]ANTHRACENE, 57-97-6, Dose [Inhibitor]: 0, 0.2 UMOL IN 100 µL ACETONE:DMSO (9:1) 2/WK FOR 20 WK APPLIED 30 MIN PRIOR TO EACH CARCINOGEN DOSE (STUDY DURATION: 20, Route [Inhibitor]: DERMAL, Species: MOUSE, Strain/Sex: ICR/FEMALE, Target Tissue: Type of Lesion: SKIN: PAPILLOMA, Dose [Carcinogen]: 50 UG IN 100 µL ACETONE ONCE, Promoter: 12-O-TETRADECANOYLPHORBOL-13-ACETATE, 16561-29-8): 73%, 27%, 63%, p<0.01

CC(C)(C)c1cccc(C(C)(C)C)c1O
tumour outcome (control, treated, inhibition, significance) (Carcinogen: BENZO[A]PYRENE, 50-32-8, Dose [Inhibitor]: 0.03 MMOL/G OF DIET DAILY STARTING 7 D BEFORE AND CONTINUING THROUGH 3 D AFTER CARCINOGEN TREATMENT FOLLOWED BY OBSERVAT, Route [Inhibitor]: ORAL, Species: MOUSE, Strain/Sex: ICR/FEMALE, Target Tissue: Type of Lesion: FORESTOMACH: NEOPLASM, Dose [Carcinogen]: 1 MG IN 0.2 ML CORN OIL 2/WK FOR 4 WK, Promoter: NONE USED): 94%, 79%, 16%, not significant

N[C@@H](Cc1ccc(O)cn1)C(=O)O
tumour outcome (control, treated, inhibition, significance) (Carcinogen: 7,12-DIMETHYLBENZ[A]ANTHRACENE, 57-97-6, Dose [Inhibitor]: 0, 2 MG IN 50% ETHANOL 1/3 D BEGINNING 2 D POST CARCINOGEN TREATMENT (STUDY DURATION: 30 WK), Route [Inhibitor]: DERMAL, Species: MOUSE, Strain/Sex: TRANSGENIC/MALE, FEMALE, Target Tissue: Type of Lesion: SKIN: PAPILLOMA, Dose [Carcinogen]: 5 MG/KG/BW ONCE, Promoter: NONE USED): 100%, 45%, 55%, not calculated | tumour outcome (control, treated, inhibition, significance) (Carcinogen: METHYLNITROSOUREA, 684-93-5, Dose [Inhibitor]: 0, 2 MG/MOUSE 1/2 D FOR 12 WK BEGINNING 1 D POST CARCINOGEN TREATMENT (STUDY DURATION: 12 WK), Route [Inhibitor]: INTRAPERITONEAL, Species: MOUSE, Strain/Sex: TRANSGENIC/MALE, FEMALE, Target Tissue: Type of Lesion: FORESTOMACH: PAPILLOMA, Dose [Carcinogen]: 50 MG/KG IN 10 MILLIMOLAR CITRATE BUFFER, Promoter: NONE USED): 100%, 0%, 100%, not calculated

C#CCN(C)[C@H](C)Cc1ccccc1
tumour outcome (control, treated, inhibition, significance) (Carcinogen: 7,12-DIMETHYLBENZ[A]ANTHRACENE [57-97-6], Dose [Inhibitor]: 0.25 MG/KG BW/D FOR 4 WK BEGINNING 4 WK PRIOR TO FIRST CARCINOGEN DOSE (STUDY DURATION: 32 WK), Route [Inhibitor]: INTRAPERITONEAL, Species: RAT, Strain/Sex: SPRAGUE-DAWLEY/FEMALE, Target Tissue: Type of Lesion: MAMMARY GLAND: TUMOR, Dose [Carcinogen]: 10 MG IN 1 ML PEANUT OIL ONCE (STUDY DURATION: 32 WK), Promoter: NONE): 13/15 (87%), 8/15 (53%), 39%, not significant | tumour outcome (control, treated, inhibition, significance) (Carcinogen: 7,12-DIMETHYLBENZ[A]ANTHRACENE [57-97-6], Dose [Inhibitor]: 0.25 MG/KG BW/D FOR 4 WK BEGINNING 4 WK PRIOR TO FIRST CARCINOGEN DOSE, FOLLOWED BY 0.25 MG/KG BW/D FOR 27 WK POST LAST, Route [Inhibitor]: INTRAPERITONEAL, Species: RAT, Strain/Sex: SPRAGUE-DAWLEY/FEMALE, Target Tissue: Type of Lesion: MAMMARY GLAND: TUMOR, Dose [Carcinogen]: 10 MG IN 1 ML PEANUT OIL ONCE (STUDY DURATION: 32 WK), Promoter: NONE): 13/15 (87%), 9/15 (60%), 31%, not significant | tumour outcome (control, treated, inhibition, significance) (Carcinogen: 7,12-DIMETHYLBENZ[A]ANTHRACENE [57-97-6], Dose [Inhibitor]: 0.25 MG/KG BW/D FOR 27 WK BEGINNING 4 D POST LAST CARCINOGEN DOSE (STUDY DURATION: 32 WK), Route [Inhibitor]: INTRAPERITONEAL, Species: RAT, Strain/Sex: SPRAGUE-DAWLEY/FEMALE, Target Tissue: Type of Lesion: MAMMARY GLAND: TUMOR, Dose [Carcinogen]: 10 MG IN 1 ML PEANUT OIL ONCE (STUDY DURATION: 32 WK), Promoter: NONE): 13/15 (87%), 10/15 (67%), 23%, not significant | tumour outcome (control, treated, inhibition, significance) (Carcinogen: 7,12-DIMETHYLBENZ[A]ANTHRACENE [57-97-6], Dose [Inhibitor]: 2.5 MG/KG BW/D FOR 4 WK BEGINNING 4 WK PRIOR TO FIRST CARCINOGEN DOSE (STUDY DURATION: 32 WK), Route [Inhibitor]: INTRAPERITONEAL, Species: RAT, Strain/Sex: SPRAGUE-DAWLEY/FEMALE, Target Tissue: Type of Lesion: MAMMARY GLAND: TUMOR, Dose [Carcinogen]: 10 MG IN 1 ML PEANUT OIL ONCE (STUDY DURATION: 32 WK), Promoter: NONE): 13/15 (87%), 8/15 (53%), 39%, not significant | tumour outcome (control, treated, inhibition, significance) (Carcinogen: 7,12-DIMETHYLBENZ[A]ANTHRACENE [57-97-6], Dose [Inhibitor]: 2.5 MG/KG BW/D FOR 4 WK BEGINNING 4 WK PRIOR TO FIRST CARCINOGEN DOSE, FOLLOWED BY 2.5 MG/KG BW/D FOR 27 WK POST LAST CA, Route [Inhibitor]: INTRAPERITONEAL, Species: RAT, Strain/Sex: SPRAGUE-DAWLEY/FEMALE, Target Tissue: Type of Lesion: MAMMARY GLAND: TUMOR, Dose [Carcinogen]: 10 MG IN 1 ML PEANUT OIL ONCE (STUDY DURATION: 32 WK), Promoter: NONE): 13/15 (87%), 5/15 (33%), 62%, p<0.0001 | tumour outcome (control, treated, inhibition, significance) (Carcinogen: 7,12-DIMETHYLBENZ[A]ANTHRACENE [57-97-6], Dose [Inhibitor]: 2.5 MG/KG BW/D FOR 27 WK BEGINNING 4 D POST LAST CARCINOGEN DOSE (STUDY DURATION: 32 WK), Route [Inhibitor]: INTRAPERITONEAL, Species: RAT, Strain/Sex: SPRAGUE-DAWLEY/FEMALE, Target Tissue: Type of Lesion: MAMMARY GLAND: TUMOR, Dose [Carcinogen]: 10 MG IN 1 ML PEANUT OIL ONCE (STUDY DURATION: 32 WK), Promoter: NONE): 13/15 (87%), 6/15 (40%), 54%, p<0.0001
